Among the data in ChEMBL document CHEMBL1155182, “Diphenylmethylene hydroxamic acids as selective class IIa histone deacetylase inhibitors” (Bioorg Med Chem Lett, 2009) are IC50 values, retold here.

Structures are written as SMILES.

One may read the IC50 as the point on the concentration scale where inhibition reaches its midpoint.

The target in one experiment is T1, Histone deacetylase 7 (Homo sapiens, UniProt Q8WUI4).
T1 sequence (Q8WUI4 whole entry): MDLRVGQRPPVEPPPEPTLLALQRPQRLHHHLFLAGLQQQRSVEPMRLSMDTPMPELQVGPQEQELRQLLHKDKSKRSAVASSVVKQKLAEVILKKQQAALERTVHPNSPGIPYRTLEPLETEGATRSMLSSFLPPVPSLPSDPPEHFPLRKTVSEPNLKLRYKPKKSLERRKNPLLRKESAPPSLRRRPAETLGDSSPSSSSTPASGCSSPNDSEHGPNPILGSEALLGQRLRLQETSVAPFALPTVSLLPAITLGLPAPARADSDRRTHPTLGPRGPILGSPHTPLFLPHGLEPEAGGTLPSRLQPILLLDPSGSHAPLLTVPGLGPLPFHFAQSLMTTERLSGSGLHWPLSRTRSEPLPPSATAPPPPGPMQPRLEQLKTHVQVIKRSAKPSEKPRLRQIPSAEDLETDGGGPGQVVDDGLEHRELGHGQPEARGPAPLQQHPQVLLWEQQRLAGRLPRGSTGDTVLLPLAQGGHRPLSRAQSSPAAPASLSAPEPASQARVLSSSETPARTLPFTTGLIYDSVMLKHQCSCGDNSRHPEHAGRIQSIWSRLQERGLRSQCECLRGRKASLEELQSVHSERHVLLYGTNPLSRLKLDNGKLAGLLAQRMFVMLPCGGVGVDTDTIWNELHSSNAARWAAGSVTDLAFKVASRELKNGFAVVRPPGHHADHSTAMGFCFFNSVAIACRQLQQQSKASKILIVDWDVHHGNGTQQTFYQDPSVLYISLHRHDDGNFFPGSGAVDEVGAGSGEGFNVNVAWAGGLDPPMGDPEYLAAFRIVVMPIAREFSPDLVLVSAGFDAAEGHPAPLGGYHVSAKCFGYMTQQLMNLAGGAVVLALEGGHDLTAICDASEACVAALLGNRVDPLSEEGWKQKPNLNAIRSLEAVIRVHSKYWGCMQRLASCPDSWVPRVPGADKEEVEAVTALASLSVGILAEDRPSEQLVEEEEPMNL

Experiment [1] concerns the target Histone deacetylase. Conditions: hek-293t.
Description: Inhibition of class 2a HDAC in HEK293T cells after 16 hrs by whole cell assay
The target in a further experiment is Histone deacetylase 4 (Homo sapiens, UniProt P56524).
In another experiment the target is Histone deacetylase 5 (Homo sapiens, UniProt Q9UQL6).
Experiment [2] has as its target Histone deacetylase. Conditions: hek-293t. This is another data set of the same source.
Description: Inhibition of class 1 HDAC in HEK293T cells after 16 hrs by whole cell assay

Histone deacetylase 4, sequence (P56524 whole entry): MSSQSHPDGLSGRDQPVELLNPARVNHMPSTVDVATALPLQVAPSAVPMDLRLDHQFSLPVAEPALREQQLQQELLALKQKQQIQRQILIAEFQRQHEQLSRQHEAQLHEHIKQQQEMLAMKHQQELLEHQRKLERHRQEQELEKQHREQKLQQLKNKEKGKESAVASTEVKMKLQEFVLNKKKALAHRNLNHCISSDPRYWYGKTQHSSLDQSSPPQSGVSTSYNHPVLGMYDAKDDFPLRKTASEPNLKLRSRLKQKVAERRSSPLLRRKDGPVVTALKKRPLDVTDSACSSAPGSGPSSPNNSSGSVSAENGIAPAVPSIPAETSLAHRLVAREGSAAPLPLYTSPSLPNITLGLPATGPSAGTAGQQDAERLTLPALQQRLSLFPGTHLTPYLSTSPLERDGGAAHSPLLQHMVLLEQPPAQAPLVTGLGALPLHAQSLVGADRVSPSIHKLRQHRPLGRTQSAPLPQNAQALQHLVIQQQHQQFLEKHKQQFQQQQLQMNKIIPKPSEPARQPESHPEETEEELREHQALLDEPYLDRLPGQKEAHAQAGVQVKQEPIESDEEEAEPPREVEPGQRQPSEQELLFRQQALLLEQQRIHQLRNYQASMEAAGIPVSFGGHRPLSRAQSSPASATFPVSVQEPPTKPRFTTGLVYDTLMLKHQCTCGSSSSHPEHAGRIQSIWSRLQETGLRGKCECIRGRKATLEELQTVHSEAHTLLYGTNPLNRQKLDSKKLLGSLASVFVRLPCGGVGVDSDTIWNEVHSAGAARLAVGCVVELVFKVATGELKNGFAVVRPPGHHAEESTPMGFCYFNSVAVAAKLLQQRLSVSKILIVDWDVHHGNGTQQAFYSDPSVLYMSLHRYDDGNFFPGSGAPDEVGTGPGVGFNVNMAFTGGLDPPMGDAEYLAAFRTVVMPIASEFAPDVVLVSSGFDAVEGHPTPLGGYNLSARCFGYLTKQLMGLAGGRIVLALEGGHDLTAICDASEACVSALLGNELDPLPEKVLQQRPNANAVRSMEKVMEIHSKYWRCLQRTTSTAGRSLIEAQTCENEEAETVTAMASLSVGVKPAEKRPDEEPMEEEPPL
Histone deacetylase 5, sequence (Q9UQL6 whole entry): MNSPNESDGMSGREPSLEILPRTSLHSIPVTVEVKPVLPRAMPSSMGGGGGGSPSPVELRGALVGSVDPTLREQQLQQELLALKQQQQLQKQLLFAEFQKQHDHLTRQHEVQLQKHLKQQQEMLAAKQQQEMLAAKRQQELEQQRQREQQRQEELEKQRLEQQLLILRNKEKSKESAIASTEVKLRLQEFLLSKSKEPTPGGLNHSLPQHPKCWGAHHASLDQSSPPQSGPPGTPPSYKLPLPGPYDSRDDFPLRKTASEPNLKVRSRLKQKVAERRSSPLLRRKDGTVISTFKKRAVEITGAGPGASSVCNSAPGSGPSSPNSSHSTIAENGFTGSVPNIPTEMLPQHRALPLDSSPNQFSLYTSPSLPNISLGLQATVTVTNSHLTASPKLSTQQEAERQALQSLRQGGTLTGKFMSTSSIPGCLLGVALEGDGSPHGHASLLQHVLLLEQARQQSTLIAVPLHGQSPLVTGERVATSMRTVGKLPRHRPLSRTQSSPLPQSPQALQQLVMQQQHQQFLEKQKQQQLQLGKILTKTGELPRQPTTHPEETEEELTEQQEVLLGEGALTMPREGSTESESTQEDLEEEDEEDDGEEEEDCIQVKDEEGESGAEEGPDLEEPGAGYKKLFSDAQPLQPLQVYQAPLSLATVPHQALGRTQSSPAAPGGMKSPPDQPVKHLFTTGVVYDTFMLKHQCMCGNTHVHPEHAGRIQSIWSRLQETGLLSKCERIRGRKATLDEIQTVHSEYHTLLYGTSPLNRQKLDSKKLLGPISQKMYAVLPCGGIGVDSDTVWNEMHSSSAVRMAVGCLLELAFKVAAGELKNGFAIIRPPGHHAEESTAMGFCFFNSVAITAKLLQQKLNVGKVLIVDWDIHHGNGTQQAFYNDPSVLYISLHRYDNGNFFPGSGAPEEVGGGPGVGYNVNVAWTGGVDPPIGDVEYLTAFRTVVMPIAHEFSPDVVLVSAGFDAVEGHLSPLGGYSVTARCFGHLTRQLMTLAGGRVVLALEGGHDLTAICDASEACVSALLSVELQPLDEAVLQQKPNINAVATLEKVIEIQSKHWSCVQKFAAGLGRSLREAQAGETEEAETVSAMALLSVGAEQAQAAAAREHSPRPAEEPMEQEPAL
Description for Histone deacetylase 4: Inhibition of human recombinant N-terminal FLAG-tagged HDAC4 (612-1034) expressed in baculovirus after 10 mins by fluorimetric analysis
Description for Histone deacetylase 5: Inhibition of human recombinant N-terminal FLAG-tagged HDAC5 (620-1122) expressed in baculovirus after 10 mins by fluorimetric analysis
Description for Histone deacetylase 7: Inhibition of human recombinant N-terminal FLAG-tagged HDAC7 (438-915) expressed in baculovirus after 10 mins by fluorimetric analysis

Regarding `CS(=O)(=O)Nc1ccc(C(C(=O)NO)c2ccc(NS(C)(=O)=O)cc2)cc1`, the IC50 at Histone deacetylase 7 is greater than 10 µM; on Histone deacetylase [1] it was greater than 50 µM; on Histone deacetylase 4, greater than 10000 nM; at Histone deacetylase 5 it was greater than 10000 nM; on Histone deacetylase [2], greater than 50 µM.

For `CC(C(=O)NO)(c1ccccc1)c1ccccc1`, the IC50 at Histone deacetylase 7 was 4.8 µM; against Histone deacetylase [1], 16 µM; against Histone deacetylase 4, 4500 nM; against Histone deacetylase 5 it was 1200 nM; at Histone deacetylase [2], greater than 50 µM.

In the case of `CC(C(=O)NO)c1ccccc1` (stereo not drawn), the IC50 on Histone deacetylase 7 is greater than 10 µM; at Histone deacetylase 4, greater than 10000 nM; against Histone deacetylase 5, greater than 10000 nM.

As to `O=C(NO)C(c1ccc(F)cc1)c1ccc(F)cc1`, the IC50 on Histone deacetylase 7 is 1.76 µM; at Histone deacetylase [1], 3.5 µM; at Histone deacetylase 4, 1100 nM; against Histone deacetylase 5, 280 nM; against Histone deacetylase [2], greater than 50 µM.

For the molecule `O=C(CC(c1ccccc1)c1ccccc1)NO`, the values for the IC50 on Histone deacetylase 7, against Histone deacetylase 4 and on Histone deacetylase 5 were greater than 10 µM, greater than 10000 nM and greater than 10000 nM, respectively.

`CN1c2ccccc2C(C(=O)NO)c2ccccc21`: the IC50 came out at 1910 nM on Histone deacetylase 4 and 470 nM against Histone deacetylase 5.

On to `O=C(NO)C(c1ccc2c(c1)CCO2)c1ccc2c(c1)CCO2`, for which the IC50 at Histone deacetylase 7 is 0.11 µM; against Histone deacetylase [1], 0.9 µM; against Histone deacetylase 4 it was 210 nM; against Histone deacetylase 5, 110 nM; at Histone deacetylase [2] it was greater than 50 µM.

`O=C(NO)C(c1ccc(Cl)cc1)c1ccc(Cl)cc1`: the IC50 was determined as 1.4 µM on Histone deacetylase 7, 960 nM against Histone deacetylase 4 and 210 nM against Histone deacetylase 5.

`O=C(NO)C(c1cccc(F)c1)c1cccc(F)c1`: the 50% inhibitory concentration (IC50) at Histone deacetylase 4 was 700 nM; at Histone deacetylase 5, 90 nM.

Consider `O=C(NO)C1c2ccccc2Cc2ccccc21`, for which the IC50 on Histone deacetylase 4 came out at 2320 nM; at Histone deacetylase 5, 1460 nM.

On to `O=C(NO)C(Cc1ccccc1)c1ccccc1` (stereo not drawn), for which the IC50 at Histone deacetylase 7 was greater than 10 µM; on Histone deacetylase 4, greater than 10000 nM; against Histone deacetylase 5 it was greater than 10000 nM.
